Assay: Non-human primate combination therapy: PLX3397, CD20 CAR T cells and cyclophosphamide preconditioning
Type: in vivo
Conditions: PLX3397 40 mg/kg twice daily from 30 days before to 21 days after cells; Rhesus macaques
Experimental: Animal subjects of the non-human primate (NHP), Macaca mulatta, which in aspects closely recapitulates the human immune system are administered cell therapy (T cells expressing a CAR targeting CD20), following administration of an agent to ameliorate toxicity. Thirty days prior to the initiation of cell therapy, T cells are isolated from peripheral blood of Rhesus macaques (n=3) and engineered via transduction with a viral vector encoding a CD20 chimeric antigen receptor (CAR), which is a tumor-associated or tumor-specific antigen, and optionally a detectable marker, such as GFP. […]
After preconditioning treatment, subjects receive a first dose of CAR-expressing cells by infusion that is less than or equal to about 1×10^7 cells/kg body weight at day 0. […] Optionally, at seven days after the administration of the of cells, the CAR-expressing cells are detected by flow cytometry and quantitative polymerase chain reaction (qPCR) to measure in vivo proliferation and persistence of the administered cells and B cell aplasia. […] Recipient animals are monitored for clinical signs and symptoms of one or more toxic outcomes or toxicities such as CRS and neurotoxicity, and data are collected longitudinally to determine CAR T cell expansion and persistence, B cell aplasia, as well as clinical labs of CRS and cytokine levels. […]

## FC(F)(F)c1ccc(CNc2ccc(Cc3c[nH]c4ncc(Cl)cc34)cn2)cn1 [PLX3397, 5-((5-chloro-1H-pyrrolo[2,3-b]pyridin-3-yl)methyl)-N-((6-(trifluoromethyl)pyridin-3-yl)methyl)pyridin-2-amine]
  symptoms of toxicity (CRS, neurotoxicity) after CAR T cell therapy: reduced or prevented

From patent US20190292246A1, “COMBINATION THERAPY OF A CELL BASED THERAPY AND A MICROGLIA IMHIBITOR” (JUNO THERAPEUTICS, INC., priority 2016, published 2019)
